Experimental data as given in patent publication US7179817B2, “Carboxylic acid derivatives and drugs containing the same as the active ingredient” (ONO Pharmaceutical Co., Ltd., priority 2001, dated 2007).
Where a name gives a salt, the structure may show the parent alone.

These compounds were tested against T1, human EDG-1 (Homo sapiens, UniProt P21453) (assay: Assessment of an agonistic action by monitoring the intracellular calcium ion). Conditions: human EDG-1 gene over expression CHO cells; Fura2 intracellular Ca2+ increase; Concentration of Half-100 nM S1P Ca2+ release.
T1 construct: expressed in transfected cells; host or cells: CHO (Chinese Hamster Ovary) cells, cultured under Blasticidin selection
T1 sequence (P21453 whole entry): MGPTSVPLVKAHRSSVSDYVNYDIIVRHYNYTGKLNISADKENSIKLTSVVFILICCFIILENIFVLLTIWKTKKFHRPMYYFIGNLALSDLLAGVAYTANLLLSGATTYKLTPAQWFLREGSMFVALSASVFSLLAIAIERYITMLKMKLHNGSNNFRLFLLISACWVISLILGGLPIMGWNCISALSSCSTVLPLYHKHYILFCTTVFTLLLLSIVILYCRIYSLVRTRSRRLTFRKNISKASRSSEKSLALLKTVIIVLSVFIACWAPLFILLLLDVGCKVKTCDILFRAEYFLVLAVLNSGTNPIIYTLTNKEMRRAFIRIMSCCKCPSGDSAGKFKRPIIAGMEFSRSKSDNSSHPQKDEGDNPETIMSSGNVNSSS
Type: cell-based
Description: (1) Assessment of an Agonistic Action by Monitoring the Intracellular Calcium Ion
The assessment of an agonistic action for the receptor was carried out using the human EDG-1 gene over expression cells (Chinese Hamster Ovary, CHO). EDG-1 expression cells were cultured with Ham's F12 (GIBCO BRL, No. 11765-047) medium containing 10% FBS, Penicillin/Streptomycin and Blasticidin (5 μg/mL). First, in order to load Fura2-AM (Dojindo, No. 348-05831) in the cells, the cells were incubated by 5 μM Fura2-AM solution (Ham's F12 medium containing 10% FBS, 20 mM HEPES pH7.4, 2.5 mM Probenecid (Sigma, catalog No.P-8761)) at 37° C. for 60 min. Next, the cells were washed once by Hanks solution containing 20 mM HEPES pH7.4, 2.5 mM Probenecid and soaked in the Hanks solution until assay.
The plate was set on the fluorescence drug screening system (Hamamatsu photonics FDSS-2000). After measurement of the background signal for […], the solution of the assay compound was added. The test compounds were added at the final concentration range of between 0.1 nM and 10 μM as the final dimethyl sulfoxide (DMSO) concentration made to 1/1000 of the original solution. Fura2-Ca^2+ fluorescence excited at 340 nm and 380 nm was measured every 3 seconds at emission wavelength 500 nm. Intracellular Ca^2+ concentration was assessed with fluorescent ratio of excitation wavelength 340 nm and 380 nm. Agonistic activity was calculated as below, that is, the control value (A) was obtained by measuring the response of 100 nM S1P (BIOMOL:M9076) after adding DMSO to the well for the test compounds, and (A) was compared with the value (B) which is the difference of fluorescent ratio obtained by measuring response between the pre and post of test compounds added. Rate of intracellular Ca^2+ increase (%) was calculated as following equation. rate of increase (%)=(B/A)×100
Moreover, rate of increase was calculated at each concentration and EC50 (Concentration of Half—100 nM S1P Ca^2+ release) of each compound was calculated setting the maximal concentration of the compound giving the response corresponding to that of S1P at the concentration of 100 nM.

Row | Structure (SMILES) | EC50 [nM]
1 | O=C(NCCc1ccc(OCCCCCc2ccccc2)cc1)c1ccc(Cl)c(C(=O)O)c1 [Example 16, 2-chloro-5-[2-(4-(5-phenylpentyloxy)phenyl)ethylaminocarbonyl]benzoic acid] | 8.3
2 | O=C(CCc1ccc(OCCCCCc2ccccc2)cc1)Nc1ccc(Cl)c(C(=O)O)c1 [Example 2(1), 2-chloro-5-[3-(4-(5-phenylpentyloxy)phenyl)propanoylamino]benzoic acid] | 9
3 | O=C(O)CNC(=O)CCc1ccc(CCCCCCc2ccccc2)cc1 [Example 28, 2-[3-(4-(6-phenylhexyl)phenyl)propanoylamino]acetic acid] | 25

The remaining lines, values ahead:

Row | EC50 [nM] | Structure (SMILES)
4 | 7.3 | O=C(CCc1ccc(OCCCCCc2ccccc2)cc1)Nc1cc(Cl)c(Cl)c(C(=O)O)c1 [Example 9(6), 2,3-dichloro-5-[3-(4-(5-phenylpentyloxy)phenyl)propanoylamino]benzoic acid]
5 | 1.5 | O=C(NCCc1ccc(OCCCCCc2ccccc2)cc1)c1ccc(C(=O)O)c(C(=O)O)c1 [Example 19, 2-carboxy-5-[2-(4-(5-phenylpentyloxy)phenyl)ethylaminocarbonyl]benzoic acid]
6 | 4.5 | O=C(O)c1cncc(C(=O)NCCc2ccc(OCCCCCc3ccccc3)cc2)c1 [Example 16(3), 5-[2-(4-(5-phenylpentyloxy)phenyl)ethylaminocarbonyl]pyridine-3-carboxylic acid]
7 | 30 | O=C(O)CCNCCc1ccc(OCCCCCc2ccccc2)cc1 [Example 32, 3-[2-(4-(5-phenylpentyloxy)phenyl)ethylamino]propanoic acid hydrochloride]
8 | 1.4 | O=C(CCc1ccc(OCCCCCc2ccccc2)cc1)Nc1ccc(C(=O)O)c(C(=O)O)c1 [Example 2(3), 2-carboxy-5-[3-(4-(5-phenylpentyloxy)phenyl)propanoylamino]benzoic acid]
